The results in this text go back to ChEMBL document CHEMBL1949541, “Discovery of 7-arylsulfonyl-1,2,3,4, 4a,9a-hexahydro-benzo[4,5]furo[2,3-c]pyridines: identification of a potent and selective 5-HT₆ receptor antagonist showing activity in rat social recognition test” (Bioorg Med Chem Lett, 2012).

A value given as a limit tells only on which side of the number the result lay.

Series [1] can be described thus: Half life in human liver microsomes. Type of series: ADME, Microsome. (Liver microsomes are a subcellular fraction often used to study metabolism.)
The nature of series [2]: Half life in dog liver microsomes. It counts as ADME, Canis lupus familiaris, Microsome.
A short description of series [3]: Half life in mouse liver microsomes. It counts as ADME, Microsome.
Series [4] can be described thus: (§1) Oral bioavailability in rat. Type of series: ADME, organism-based. The note with it: in vivo.
Series [5] concerns the target T1, 5-hydroxytryptamine receptor 6 (Homo sapiens, UniProt P50406). Nature of the series: Displacement of [3H]LSD from human recombinant 5HT6 receptor. For orientation: Displacement assays read how much labelled ligand stays bound in the presence of the test substance.
Series [6] is described as follows: Half life in rat liver microsomes. It counts as ADME, Microsome.
Series [7] deals with T1, 5-hydroxytryptamine receptor 6. Nature of the series: Antagonist activity at human 5HT6 receptor expressed in human astrocytoma cells assessed as inhibition of cAMP production. It counts as functional, cell-based. (Changes in cAMP serve as a functional read-out for many G protein-coupled receptors.)
Series [8] addresses 5-hydroxytryptamine receptor 6 (Rattus norvegicus, UniProt P31388). Nature of the series: Displacement of [3H]LSD from rat recombinant 5HT6 receptor.
The test system of series [9] is Rattus norvegicus. Kind of series: AUC in po dosed rat. Type of series: ADME, organism-based, Plasma. The settings on record: in vivo.
For series [10], the system named is Rattus norvegicus. The description is as §1. Type of series: ADME, organism-based. The settings on record: in vivo.
In series [11] the target is Sodium-dependent dopamine transporter (Homo sapiens, UniProt Q01959). The settings on record: 10 uM.
Description: Inhibition of DA transporter at 10 uM
The target of series [12] is 5-hydroxytryptamine receptor 1A (Homo sapiens) (UniProt P08908). Nature of the series: Inhibition of human 5HT1A at 10 uM.
Chain of 5-hydroxytryptamine receptor 1A (Homo sapiens) (P08908 whole entry): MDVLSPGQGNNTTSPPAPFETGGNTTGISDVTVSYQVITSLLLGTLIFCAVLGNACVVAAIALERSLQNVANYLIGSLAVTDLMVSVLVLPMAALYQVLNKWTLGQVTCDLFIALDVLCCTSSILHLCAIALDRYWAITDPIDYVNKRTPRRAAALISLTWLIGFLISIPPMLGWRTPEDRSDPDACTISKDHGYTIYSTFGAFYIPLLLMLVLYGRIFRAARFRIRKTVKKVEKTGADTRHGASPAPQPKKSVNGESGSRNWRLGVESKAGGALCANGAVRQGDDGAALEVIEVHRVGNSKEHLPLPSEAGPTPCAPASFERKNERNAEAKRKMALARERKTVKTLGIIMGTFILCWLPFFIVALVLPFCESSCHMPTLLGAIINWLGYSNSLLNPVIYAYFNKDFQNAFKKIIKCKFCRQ
The target in series [13] is 5-hydroxytryptamine receptor 1B (Rattus norvegicus) (UniProt P28564). Kind of series: Inhibition of rat […] at 10 uM.
Chain of 5-hydroxytryptamine receptor 1B (Rattus norvegicus) (P28564 whole entry): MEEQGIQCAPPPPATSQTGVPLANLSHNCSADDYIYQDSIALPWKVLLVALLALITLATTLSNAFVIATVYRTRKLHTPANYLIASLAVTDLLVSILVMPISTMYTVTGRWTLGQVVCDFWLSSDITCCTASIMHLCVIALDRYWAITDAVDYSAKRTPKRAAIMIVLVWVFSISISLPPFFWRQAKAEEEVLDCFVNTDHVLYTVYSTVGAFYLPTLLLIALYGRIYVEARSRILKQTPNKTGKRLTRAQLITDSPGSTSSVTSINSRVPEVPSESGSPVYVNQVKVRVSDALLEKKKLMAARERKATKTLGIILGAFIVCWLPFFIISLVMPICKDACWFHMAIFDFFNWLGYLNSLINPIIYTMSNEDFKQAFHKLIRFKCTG
The target in series [14] is 5-hydroxytryptamine receptor 3A (Homo sapiens) (UniProt P46098). Nature of the series: Inhibition of human 5HT3 at 10 uM.
Chain of 5-hydroxytryptamine receptor 3A (Homo sapiens) (P46098 whole entry): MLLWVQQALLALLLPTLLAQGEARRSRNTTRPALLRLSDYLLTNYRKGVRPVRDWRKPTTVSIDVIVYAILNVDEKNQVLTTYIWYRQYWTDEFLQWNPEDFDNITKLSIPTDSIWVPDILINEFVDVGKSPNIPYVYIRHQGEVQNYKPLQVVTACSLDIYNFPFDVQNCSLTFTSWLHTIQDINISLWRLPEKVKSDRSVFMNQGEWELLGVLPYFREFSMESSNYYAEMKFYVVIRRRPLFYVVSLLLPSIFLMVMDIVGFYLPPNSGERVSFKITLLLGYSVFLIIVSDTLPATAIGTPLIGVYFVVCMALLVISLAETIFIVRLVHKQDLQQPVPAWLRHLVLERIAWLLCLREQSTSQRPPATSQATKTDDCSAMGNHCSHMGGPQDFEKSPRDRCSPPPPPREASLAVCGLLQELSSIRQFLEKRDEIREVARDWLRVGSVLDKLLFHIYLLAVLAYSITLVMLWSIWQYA
For series [15], the target named is Sodium-dependent noradrenaline transporter (Homo sapiens, UniProt P23975). The settings on record: 10 uM.
Chain of Sodium-dependent noradrenaline transporter (P23975 whole entry): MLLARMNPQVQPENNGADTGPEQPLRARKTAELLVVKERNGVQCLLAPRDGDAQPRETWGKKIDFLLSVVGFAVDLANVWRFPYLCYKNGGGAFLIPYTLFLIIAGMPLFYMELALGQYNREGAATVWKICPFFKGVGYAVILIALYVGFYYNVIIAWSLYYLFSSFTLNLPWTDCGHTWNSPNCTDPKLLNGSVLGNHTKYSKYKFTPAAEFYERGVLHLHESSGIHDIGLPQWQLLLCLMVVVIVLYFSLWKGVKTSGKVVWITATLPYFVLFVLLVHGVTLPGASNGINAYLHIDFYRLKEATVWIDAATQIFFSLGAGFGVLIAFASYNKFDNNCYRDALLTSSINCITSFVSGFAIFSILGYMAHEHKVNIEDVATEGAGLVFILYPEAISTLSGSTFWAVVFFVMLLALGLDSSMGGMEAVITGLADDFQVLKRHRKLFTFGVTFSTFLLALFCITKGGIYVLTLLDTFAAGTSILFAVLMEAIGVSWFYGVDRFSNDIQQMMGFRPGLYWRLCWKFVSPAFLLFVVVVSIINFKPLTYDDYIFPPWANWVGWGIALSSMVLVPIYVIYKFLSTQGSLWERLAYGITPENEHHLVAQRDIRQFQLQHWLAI
Description: Inhibition of NA transporter at 10 uM
In series [16] the target is 5-hydroxytryptamine receptor 2A (Homo sapiens, UniProt P28223). Kind of series: Inhibition of human 5HT2A at 10 uM.
Chain of 5-hydroxytryptamine receptor 2A (P28223 whole entry): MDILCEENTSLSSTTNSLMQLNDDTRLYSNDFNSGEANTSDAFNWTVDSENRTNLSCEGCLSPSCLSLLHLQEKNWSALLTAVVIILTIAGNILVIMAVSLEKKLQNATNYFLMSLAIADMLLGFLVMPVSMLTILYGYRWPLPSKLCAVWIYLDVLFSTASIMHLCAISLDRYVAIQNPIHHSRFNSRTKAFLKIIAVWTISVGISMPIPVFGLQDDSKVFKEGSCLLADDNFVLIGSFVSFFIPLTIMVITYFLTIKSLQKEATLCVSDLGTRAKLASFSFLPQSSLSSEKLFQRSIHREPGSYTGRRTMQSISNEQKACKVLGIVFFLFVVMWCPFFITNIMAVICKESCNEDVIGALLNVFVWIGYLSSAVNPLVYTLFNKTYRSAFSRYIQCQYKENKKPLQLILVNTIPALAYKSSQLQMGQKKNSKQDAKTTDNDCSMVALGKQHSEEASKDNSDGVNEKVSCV
The target of series [17] is Muscarinic acetylcholine receptor M4 (Homo sapiens) (UniProt P08173). The settings on record: 10 uM.
Chain of Muscarinic acetylcholine receptor M4 (Homo sapiens) (P08173 whole entry): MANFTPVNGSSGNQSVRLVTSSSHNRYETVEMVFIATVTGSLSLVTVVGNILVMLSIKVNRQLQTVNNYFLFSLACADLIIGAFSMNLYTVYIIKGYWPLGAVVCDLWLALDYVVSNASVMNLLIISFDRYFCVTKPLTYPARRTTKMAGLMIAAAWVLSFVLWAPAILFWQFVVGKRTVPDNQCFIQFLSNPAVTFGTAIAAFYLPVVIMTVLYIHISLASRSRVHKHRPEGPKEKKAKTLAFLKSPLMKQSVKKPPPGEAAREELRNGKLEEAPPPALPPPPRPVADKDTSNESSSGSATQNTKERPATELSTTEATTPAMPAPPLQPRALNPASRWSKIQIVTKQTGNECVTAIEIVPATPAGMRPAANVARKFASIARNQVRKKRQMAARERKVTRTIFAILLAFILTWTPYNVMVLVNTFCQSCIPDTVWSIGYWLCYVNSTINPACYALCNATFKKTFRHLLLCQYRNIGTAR
Description: Inhibition of M4 receptor at 10 uM
Series [18] addresses 5-hydroxytryptamine receptor 5A (Homo sapiens) (UniProt P47898). Nature of the series: Inhibition of human 5HT5A at 10 uM.
Series [19] has as its target Muscarinic acetylcholine receptor M1 (Homo sapiens) (UniProt P11229). The settings on record: 10 uM.
Description: Inhibition of M1 receptor at 10 uM
Series [20] concerns the target Muscarinic acetylcholine receptor M2 (Homo sapiens) (UniProt P08172). The note with it: 10 uM.
Description: Inhibition of M2 receptor at 10 uM
The subject of series [21] is Rattus norvegicus. Kind of series: Antiamnesic activity in ip dosed rat assessed as decrease in ratio of investigation duration of familiar juvenile rat administered 120 mins prior to test by social recognition test. It counts as functional, organism-based.
Series [22] concerns the target 5-hydroxytryptamine receptor 7 (Homo sapiens) (UniProt P34969). Nature of the series: Inhibition of human 5HT7 at 10 uM.
The target of series [23] is 5-hydroxytryptamine receptor 2B (Homo sapiens, UniProt P41595). Nature of the series: Inhibition of human 5HT2B at 10 uM.
Series [24] concerns the target 5-hydroxytryptamine receptor 2C (Homo sapiens) (UniProt P28335). Kind of series: Inhibition of human 5HT2C at 10 uM.
Series [25] relates to Rattus norvegicus. Kind of series: Volume of distribution in rat at 1 mg/kg, iv. Type of series: ADME, organism-based. Also on record: dose 1 mg/kg, route intravenous. The note with it: in vivo.
Series [26] has as its system Rattus norvegicus. Nature of the series: Half life in rat at 1 mg/kg, iv. It counts as ADME, organism-based. Also on record: dose 1 mg/kg, route intravenous. The note with it: in vivo.
A short description of series [27]: Ratio of drug uptake in brain to plasma in rat at 5 mg/kg, po. Type of series: ADME, organism-based. Also on record: dose 5 mg/kg, route oral. The note with it: read-out: BPR.
Series [28] is described as follows: Oral bioavailability in rat at 5 mg/kg at 24 hrs. Type of series: ADME, organism-based. The note with it: in vivo.

Chain of 5-hydroxytryptamine receptor 6 (Rattus norvegicus, UniProt P31388) (P31388 whole entry): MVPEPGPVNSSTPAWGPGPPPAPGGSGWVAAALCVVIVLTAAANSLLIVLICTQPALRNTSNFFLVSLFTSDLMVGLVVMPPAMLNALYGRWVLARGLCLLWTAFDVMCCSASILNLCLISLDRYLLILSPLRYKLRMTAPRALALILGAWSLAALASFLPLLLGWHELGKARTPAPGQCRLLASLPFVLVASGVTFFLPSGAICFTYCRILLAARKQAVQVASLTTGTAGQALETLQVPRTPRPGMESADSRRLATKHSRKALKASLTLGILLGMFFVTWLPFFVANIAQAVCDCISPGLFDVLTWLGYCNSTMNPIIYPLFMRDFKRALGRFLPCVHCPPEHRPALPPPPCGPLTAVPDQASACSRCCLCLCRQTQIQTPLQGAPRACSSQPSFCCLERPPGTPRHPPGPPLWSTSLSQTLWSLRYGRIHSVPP
T1 sequence (P50406 whole entry): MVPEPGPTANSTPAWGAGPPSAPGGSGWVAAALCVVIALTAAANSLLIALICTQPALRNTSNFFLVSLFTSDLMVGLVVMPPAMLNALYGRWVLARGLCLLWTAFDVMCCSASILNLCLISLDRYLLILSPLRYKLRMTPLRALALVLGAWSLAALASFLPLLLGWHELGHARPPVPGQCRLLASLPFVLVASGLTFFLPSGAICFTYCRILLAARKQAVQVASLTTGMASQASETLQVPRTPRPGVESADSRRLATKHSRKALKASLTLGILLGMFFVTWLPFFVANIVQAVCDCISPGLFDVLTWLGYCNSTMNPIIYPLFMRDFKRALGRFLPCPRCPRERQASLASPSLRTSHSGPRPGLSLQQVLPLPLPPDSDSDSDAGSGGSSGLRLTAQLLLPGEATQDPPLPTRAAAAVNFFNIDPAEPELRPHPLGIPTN
Chain of Muscarinic acetylcholine receptor M1 (Homo sapiens) (P11229 whole entry): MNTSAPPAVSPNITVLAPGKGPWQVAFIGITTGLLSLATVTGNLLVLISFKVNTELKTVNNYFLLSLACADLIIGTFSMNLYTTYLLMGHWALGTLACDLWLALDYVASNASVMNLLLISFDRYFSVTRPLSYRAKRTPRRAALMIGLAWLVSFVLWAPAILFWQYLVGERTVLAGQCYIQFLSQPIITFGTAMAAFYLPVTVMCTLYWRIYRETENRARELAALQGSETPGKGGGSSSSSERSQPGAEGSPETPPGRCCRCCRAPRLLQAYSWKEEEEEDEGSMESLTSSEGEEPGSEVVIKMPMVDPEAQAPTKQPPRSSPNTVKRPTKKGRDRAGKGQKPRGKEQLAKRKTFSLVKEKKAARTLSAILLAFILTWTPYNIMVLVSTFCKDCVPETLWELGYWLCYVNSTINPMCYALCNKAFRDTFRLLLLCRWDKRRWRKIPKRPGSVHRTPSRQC
Chain of 5-hydroxytryptamine receptor 5A (Homo sapiens) (P47898 whole entry): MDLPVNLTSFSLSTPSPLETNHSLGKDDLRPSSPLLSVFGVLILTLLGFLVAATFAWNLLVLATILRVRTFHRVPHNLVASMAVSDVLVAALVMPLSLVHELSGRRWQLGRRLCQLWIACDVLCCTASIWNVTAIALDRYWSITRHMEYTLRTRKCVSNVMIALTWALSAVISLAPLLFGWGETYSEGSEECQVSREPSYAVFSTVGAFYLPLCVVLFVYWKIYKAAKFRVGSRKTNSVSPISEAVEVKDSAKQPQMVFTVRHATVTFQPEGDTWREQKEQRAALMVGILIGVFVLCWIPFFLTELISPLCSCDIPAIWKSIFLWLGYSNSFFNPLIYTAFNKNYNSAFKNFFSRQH

`Cl.O=S(=O)(c1ccccc1)c1ccc2c3c(oc2c1)CNCC3`: the half-life (in general, the time needed for the level to fall by half in the phase considered) in series [1] is more than 40 min; in series [2] it was 10 min; in series [3], less than 5 min; in series [6], less than 5 min. Besides, the bioavailability (usually the share of a dose that reaches the circulation, judged against a reference dose that is usually intravenous) in series [4] amounted to 7%. In series [5], the Ki (as a rule, the dissociation constant of the complex between target and ligand, obtained from inhibition or displacement) came to 0.0029 µM.
On to `Cl.O=S(=O)(c1ccccc1)c1ccc2c(c1)O[C@H]1CNCC[C@@H]21` (racemic), for which the half-life in series [1], in series [2], in [3] and in series [6] was more than 40 min each time. In [4], this compound returned a bioavailability of 15%. Further, the Ki in [5] worked out at 0.083 µM.
`O=S(=O)(c1ccc2c(c1)O[C@H]1CNCC[C@@H]21)c1ccccc1F` (racemic): the IC50 (commonly the point on the concentration scale where inhibition reaches its midpoint) in [7] stood at 0.179 µM. In addition, the figures for the Ki in [8] and in series [5] were 0.145 µM and 0.032 µM, respectively.
The corresponding values for `O=S(=O)(c1ccc2c(c1)O[C@H]1CNCC[C@@H]21)c1ccccc1Cl` (racemic) are 0.133 µM, 0.206 µM and 0.038 µM.
In the same order, the values of `O=S(=O)(c1ccc2c(c1)O[C@H]1CNCC[C@@H]21)c1ccccc1-c1ccccc1` (racemic) are 0.135 µM, 0.136 µM and 0.015 µM.
The corresponding values for `O=S(=O)(c1cccc(F)c1)c1ccc2c(c1)O[C@H]1CNCC[C@@H]21` (racemic) are 0.033 µM, 0.052 µM and 0.021 µM.
As to `O=S(=O)(c1cccc(Cl)c1)c1ccc2c(c1)O[C@H]1CNCC[C@@H]21` (racemic), in [7], the IC50 worked out at 0.027 µM. The Ki is 0.04 µM in series [8] and 0.011 µM in series [5].
The corresponding values for `Cc1cccc(S(=O)(=O)c2ccc3c(c2)O[C@H]2CNCC[C@@H]32)c1` (racemic) are 0.227 µM, 0.243 µM and 0.037 µM.
As to `O=S(=O)(c1cccc(C(F)(F)F)c1)c1ccc2c(c1)O[C@H]1CNCC[C@@H]21` (racemic), the IC50 in [7] came to 0.357 µM. The Ki in series [5] stood at 0.048 µM.
In the same order, the values of `COc1cccc(S(=O)(=O)c2ccc3c(c2)O[C@H]2CNCC[C@@H]32)c1` (racemic) are 0.281 µM and 0.085 µM.
With `CC(C)Oc1cccc(S(=O)(=O)c2ccc3c(c2)O[C@H]2CNCC[C@@H]32)c1` (racemic), the IC50 in [7] turned out to be 0.306 µM. The Ki in series [8] was found to be 0.156 µM; in series [5], 0.023 µM.
`COCCOc1cccc(S(=O)(=O)c2ccc3c(c2)O[C@H]2CNCC[C@@H]32)c1` (racemic): the Ki in series [5] came out at 0.562 µM.
On to `COCCCOc1cccc(S(=O)(=O)c2ccc3c(c2)O[C@H]2CNCC[C@@H]32)c1` (racemic), for which the Ki in series [5] was found to be 0.203 µM.
On the same count and under the same terms, in the case of `O=S(=O)(c1ccc(F)cc1)c1ccc2c(c1)O[C@H]1CNCC[C@@H]21` (racemic) it was 0.385 µM.
As to `Cc1ccc(S(=O)(=O)c2ccc3c(c2)O[C@H]2CNCC[C@@H]32)cc1` (racemic), the IC50 in series [7] amounted to 0.245 µM. Further, the Ki is 0.236 µM in series [8] and 0.064 µM in series [5].
For `CC(C)Oc1cc(F)cc(S(=O)(=O)c2ccc3c(c2)O[C@H]2CNCC[C@@H]32)c1` (single isomer, unassigned; enantiomer 1), in series [5], the inhibition constant Ki turned out to be 0.049 µM.
In turn, `Cl.O=S(=O)(c1cccc(F)c1)c1ccc2c(c1)O[C@H]1CNCC[C@@H]21` (single isomer, unassigned; enantiomer 1) registered a bioavailability in [4] of less than 1%. The Ki in series [5] stood at 0.011 µM. Besides, the AUC – broadly, the area under the concentration-time curve, a measure of exposure – in [9] was 0 ng·h/mL.
With `CC(C)Oc1cccc(S(=O)(=O)c2ccc3c(c2)O[C@H]2CNCC[C@@H]32)c1.Cl` (single isomer, unassigned; enantiomer 1), the F in series [10] turned out to be 9%. In addition, the Ki in [5] amounted to 0.017 µM. Further, the AUC in series [9] was found to be 637 ng·h/mL.
On to `O=S(=O)(c1cc(F)cc(F)c1)c1ccc2c(c1)O[C@H]1CNCC[C@@H]21` (single isomer, unassigned; enantiomer 1), for which the IC50 in series [7] is 1.36 µM. Also, the values for the Ki in series [8] and in series [5] were 2.18 µM and 0.166 µM, respectively.
Take `O=S(=O)(c1cc(F)cc(Cl)c1)c1ccc2c(c1)O[C@H]1CNCC[C@@H]21` (single isomer, unassigned; enantiomer 1): the IC50 in [7] is 0.79 µM. Also, the Ki in [5] is 0.068 µM.
In the same order, the values of `O=S(=O)(c1ccc2c(c1)O[C@H]1CNCC[C@@H]21)c1cccc(Cl)c1Cl` (single isomer, unassigned; enantiomer 1) are 0.04 µM and 0.005 µM.
Regarding `CC(C)Oc1cccc(S(=O)(=O)c2ccc3c(c2)O[C@H]2CNCC[C@@H]32)c1F` (single isomer, unassigned; enantiomer 1), the Ki in [5] was found to be 0.056 µM.
Turning to `COc1cc(OC(C)C)cc(S(=O)(=O)c2ccc3c(c2)O[C@H]2CNCC[C@@H]32)c1` (single isomer, unassigned; enantiomer 1), the inhibition – broadly, the relative decrease from the control value, in per cent – in series [11] was more than 50%; in series [12], 19%; in [13], 16%; in series [14] it was 25%; in [15], more than 50%; in series [16], 83%. For the same compound, the inhibition in [17] was more than 50%; in series [18], 6%; in series [19], more than 50%; in series [20], more than 50%; in [22], 6%; in series [23] it was 62%. In [24], this compound displayed an inhibition of 71%. Besides, the Activity result in series [21] is “Dose-dependent effect”.
`CC(C)Oc1cc(F)cc(S(=O)(=O)c2ccc3c(c2)O[C@H]2CNCC[C@@H]32)c1` (single isomer, unassigned; enantiomer 2): in series [5], the Ki is 0.065 µM.
In series [10], `Cl.O=S(=O)(c1cccc(F)c1)c1ccc2c(c1)O[C@H]1CNCC[C@@H]21` (single isomer, unassigned; enantiomer 2) came in with an F of 2%. For the same compound, the Ki in series [5] was 0.085 µM. Moreover, the AUC in [9] is 434 ng·h/mL.
The compound `CC(C)Oc1cccc(S(=O)(=O)c2ccc3c(c2)O[C@H]2CNCC[C@@H]32)c1.Cl` (single isomer, unassigned; enantiomer 2) yielded a F in series [10] of 26%. Moreover, in series [5], the Ki turned out to be 0.031 µM. Besides, the AUC in [9] worked out at 310 ng·h/mL.
In the case of `O=S(=O)(c1cc(F)cc(F)c1)c1ccc2c(c1)O[C@H]1CNCC[C@@H]21` (single isomer, unassigned; enantiomer 2), the IC50 in series [7] was 0.096 µM. The results for the Ki in [8] and in [5] were 0.174 µM and 0.028 µM, respectively.
Regarding `O=S(=O)(c1cc(F)cc(Cl)c1)c1ccc2c(c1)O[C@H]1CNCC[C@@H]21` (single isomer, unassigned; enantiomer 2), in [7], the IC50 was 0.063 µM. For the same compound, the Ki in series [5] came to 0.011 µM.
Take `O=S(=O)(c1ccc2c(c1)O[C@H]1CNCC[C@@H]21)c1cccc(Cl)c1Cl` (single isomer, unassigned; enantiomer 2): the IC50 in series [7] worked out at 0.006 µM. In [5], the Ki came to 0.002 µM.
As for `CC(C)Oc1cccc(S(=O)(=O)c2ccc3c(c2)O[C@H]2CNCC[C@@H]32)c1F` (single isomer, unassigned; enantiomer 2), the Ki in series [5] is 0.021 µM.
Consider `O=S(=O)(c1ccccc1)c1cnc2c(N3CCNCC3)cccc2c1` [INTEPIRDINE], for which, in [25], the Vd (usually a proportionality between amount in the body and measured concentration, not a real space) turned out to be 5.7 L/kg. The compound further displayed a t1/2 in series [26] of 42 min. Also, the Kp in [27] stood at 0.7. In [28], this compound registered a bioavailability of 24%.
